Drawing on patent US20260055083A1, “APOL1 INHIBITORS AND METHODS OF USE” (Maze Therapeutics, Inc., priority 2022, published 2026), this text covers AC50 and EC50 for 23 compounds.

Where only a bound is given, the exact number is not on record here.

Test [1] deals with T1, APOL1 G2 (Homo sapiens, UniProt O14791, DEL388-389).
T1 construct: expressed in transfected cells; host or cells: HEK293/T-REx APOL1 G2 clone #2, doxycycline-inducible
T1 sequence (O14791 with tags, fused parts or gaps DEL388-389): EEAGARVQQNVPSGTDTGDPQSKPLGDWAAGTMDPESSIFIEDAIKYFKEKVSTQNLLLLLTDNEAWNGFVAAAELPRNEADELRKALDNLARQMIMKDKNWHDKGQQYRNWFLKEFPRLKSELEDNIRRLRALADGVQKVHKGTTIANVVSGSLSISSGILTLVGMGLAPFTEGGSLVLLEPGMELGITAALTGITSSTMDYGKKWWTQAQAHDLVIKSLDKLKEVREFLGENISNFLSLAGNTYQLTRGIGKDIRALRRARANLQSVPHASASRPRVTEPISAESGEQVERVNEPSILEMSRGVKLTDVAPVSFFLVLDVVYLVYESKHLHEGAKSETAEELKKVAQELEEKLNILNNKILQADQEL
Nature of the test: APOL1 G2 FLIPR calcium influx assay (HEK T-REx/GCaMP6f/APOL1 G2 K6.3 cells). It counts as cell-based. The conditions noted are these: HEK293 clone expressing GCaMP6f, doxycycline-induced APOL1 G2; prevention of calcium influx; geometric mean of at least 2 assay runs. The method, boiled down:
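Cells express GCaMP6f stably and APOL1 G2 after a 6 h doxycycline induction. Duplicate 8-point dilutions sit 10 min at room temperature in Ca2+-free Tyrode's (pH 7.4), then Ca2+ is injected to 5 mM final and the FLIPR signal recorded. AC50s are geometric means across ≥2 days.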

Test [2] deals with T1, APOL1 G2. Briefly: APOL1 G2 HEK293 rescue of cell death caused by overexpression of APOL1 (CellTiter-Glo). The note with it: HEK293/T-REx APOL1 G2 clone #2, doxycycline induction, 17 hours, CellTiter-Glo luminescence; reversal of cell death; geometric mean of at least 2 assay runs. It counts as cell-based. The method, boiled down: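 Viability read by CellTiter-Glo luminescence after 17 h, 37 °C, in HEK293/T-REx cells expressing APOL1 G2 on 6 ng/mL doxycycline, 5,000 cells/well. Compounds tested as duplicate 8-point, 3-fold dilutions, 0.5% DMSO final; four-parameter logistic EC50, usually geometric mean of ≥2 days.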
On the technique in general: Cellular ATP, detected with luciferase, serves as a proxy for viable cell number.

With `C[C@@H]1C[C@H](COc2ccc(S(C)(=O)=O)cc2)CN1C1Cc2ccc(Cl)cc2C1` (single isomer, unassigned) [Compound 2], the AC50 at APOL1 G2 [1] turned out to be 1030 nM. Moreover, the EC50 on APOL1 G2 [2] was 693 nM.

`CC(C(O)c1cc(Cl)cc(C#N)c1)N1C[C@@H](COc2ccc(S(C)(=O)=O)cc2)[C@H](C)C1` (single isomer, unassigned) [Compound 103, 3-chloro-5-((1S,2S or 1R,2R)-1-hydroxy-2-((3S,4S)-3-methyl-4-((4-(methylsulfonyl)phenoxy)methyl)pyrrolidin-1-yl)propyl)benzonitrile]: at APOL1 G2 [1], the concentration at half-maximal activity (AC50) amounted to 905 nM. Further, the EC50 on APOL1 G2 [2] turned out to be 655 nM.

In the case of `C[C@@H]1CN(CCc2cc(Cl)cc(C#N)c2)C[C@H]1COc1ccc(S(=O)(=O)C2(C)COC2)cc1` [Compound 13, 3-chloro-5-{2-[(3S,4S)-3-methyl-4-({4-[(3-methyloxetan-3-yl)sulfonyl]phenoxy}methyl)pyrrolidin-1-yl]ethyl}benzonitrile], on APOL1 G2 [1], the concentration at half-maximal activity (AC50) turned out to be 290 nM. Moreover, the EC50 on APOL1 G2 [2] is 41.4 nM.

`CS(=O)(=O)c1ccc(OC[C@H]2C[C@H]3CCCC(Cc4cc(Cl)cc(C#N)c4)N3C2)cc1` (single isomer, unassigned) [Compound 125, 3-{[(2S,5R or 5S,8aR)-2-[(4-methanesulfonylphenoxy)methyl]-octahydroindolizin-5-yl]methyl}-5-chlorobenzonitrile]: on APOL1 G2 [1], the AC50 amounted to 2210 nM. Further, on APOL1 G2 [2], the EC50 was found to be 449 nM.

For the compound `C[C@@H]1C[C@H](COc2ccc(S(=O)(=O)CCCS(C)(=O)=O)cc2)CN1C1CCc2c(C#N)cc(Cl)cc2C1` (single isomer, unassigned) [Compound 45, (6S or 6R)-3-chloro-6-[(2R,4S)-4-{[4-(3-methanesulfonylpropanesulfonyl)phenoxy]methyl}-2-methylpyrrolidin-1-yl]-5,6,7,8-tetrahydronaphthalene-1-carbonitrile], the AC50 on APOL1 G2 [1] turned out to be 998 nM. The EC50 at APOL1 G2 [2] is 300 nM.

Consider `C[C@@H]1C[C@H](COc2cnc(S(C)(=O)=O)cn2)CN1CCc1cccc(C#N)c1` [Compound 1, 3-(2-((2R,4S)-2-methyl-4-(((5-(methylsulfonyl)pyrazin-2-yl)oxy)methyl)pyrrolidin-1-yl)ethyl)benzonitrile], for which the AC50 on APOL1 G2 [1] was determined as 39.7 nM. For the same compound, on APOL1 G2 [2], the EC50 was 53.7 nM.

`CC(=O)N(C)CCS(=O)(=O)c1ccc(OC[C@H]2C[C@@H](C)N(CCc3cccc(C#N)c3)C2)cc1` [Compound 67, N-[2-(4-{[(3S,5R)-1-[2-(3-cyanophenyl)ethyl]-5-methylpyrrolidin-3-yl]methoxy}benzenesulfonyl)ethyl]-N-methylacetamide]: the concentration at half-maximal activity (AC50) at APOL1 G2 [1] turned out to be 337 nM. Also, the half-maximal effective concentration (EC50) on APOL1 G2 [2] was 50.3 nM.

On to `CS(=O)(=O)C1(c2ccc(OC[C@@H]3CN(CCc4cc(Cl)cc(C#N)c4)CCN3)cc2)COC1` [Compound 111, 3-chloro-5-{2-[(3S)-3-{[4-(3-methanesulfonyloxetan-3-yl)phenoxy]methyl}piperazin-1-yl]ethyl}benzonitrile], for which the AC50 on APOL1 G2 [1] is less than 116 nM. Besides, the EC50 at APOL1 G2 [2] was found to be 137 nM.

With `C[C@@H]1C[C@H](COc2ccc(S(C)(=O)=O)cc2)CN1C1CCc2c(Cl)cccc2C1` (single isomer, unassigned) [Compound 138, (2R,4S)-1-[(2R or 2S)-5-chloro-1,2,3,4-tetrahydronaphthalen-2-yl]-4-[(4-methanesulfonylphenoxy)methyl]-2-methylpyrrolidine], at APOL1 G2 [1], the AC50 is 1080 nM. The 50% effective concentration (EC50) on APOL1 G2 [2] was determined as 149 nM.

Regarding `C[C@@H]1CN(C(CO)Cc2cc(Cl)cc(C#N)c2)C[C@H]1COc1ccc(S(C)(=O)=O)cc1` (single isomer, unassigned) [Compound 121, 3-chloro-5-[(2R or 2S)-3-hydroxy-2-[(3S,4S)-3-[(4-methanesulfonylphenoxy)methyl]-4-methylpyrrolidin-1-yl]propyl]benzonitrile], the concentration at half-maximal activity (AC50) at APOL1 G2 [1] was 1110 nM. Further, at APOL1 G2 [2], the 50% effective concentration (EC50) was more than 10000 nM.

As for `CS(=O)(=O)c1ccc(OC[C@@H]2CN(CCc3cc(Cl)cc(C#N)c3)CCN2)cc1C(F)(F)F` [Compound 114, 3-chloro-5-{2-[(3S)-3-{[4-methanesulfonyl-3-(trifluoromethyl)phenoxy]methyl}piperazin-1-yl]ethyl}benzonitrile], at APOL1 G2 [1], the AC50 is 868 nM. Moreover, at APOL1 G2 [2], the EC50 was 295 nM.

As for `C[C@@H]1CN(CCc2cc(Cl)cc(C#N)c2)C[C@H]1COc1cc(F)c(S(C)(=O)=O)c(F)c1` [Compound 82, 3-chloro-5-{2-[(3S,4S)-3-[(3,5-difluoro-4-methanesulfonylphenoxy)methyl]-4-methylpyrrolidin-1-yl]ethyl}benzonitrile], on APOL1 G2 [1], the concentration at half-maximal activity (AC50) was 370 nM. Moreover, the EC50 at APOL1 G2 [2] amounted to 165 nM.

For the compound `CN=S(C)(=O)c1ccc(OC[C@@H]2CN(CCc3cccc(C#N)c3)C[C@H]2C)cn1` (single isomer, unassigned) [Compound 73], at APOL1 G2 [1], the half-maximal activity concentration (AC50) came out at 351 nM. Further, the 50% effective concentration (EC50) on APOL1 G2 [2] was 375 nM.

`C[C@@H]1C[C@H](COc2ccc(S(=O)(=O)CCCS(C)(=O)=O)cc2)CN1C1CCc2ccc(Cl)cc2C1` (single isomer, unassigned) [Compound 53, (2R,4S)-1-[(2R or 2S)-7-chloro-1,2,3,4-tetrahydronaphthalen-2-yl]-4-{[4-(3-methanesulfonylpropanesulfonyl)phenoxy]methyl}-2-methylpyrrolidine]: the half-maximal activity concentration (AC50) at APOL1 G2 [1] amounted to 999 nM. The concentration giving a half-maximal response (EC50) at APOL1 G2 [2] turned out to be 279 nM.

Regarding `C[C@@H]1C[C@H](COc2ccc(S(=O)(=O)CCCS(C)(=O)=O)cc2)CN1C1CCc2c(C#N)cccc2C1` (single isomer, unassigned) [Compound 42, (6R or 6S)-6-[(2R,4S)-4-{[4-(3-methanesulfonylpropanesulfonyl)phenoxy]methyl}-2-methylpyrrolidin-1-yl]-5,6,7,8-tetrahydronaphthalene-1-carbonitrile], the AC50 on APOL1 G2 [1] stood at 1030 nM. Besides, the EC50 at APOL1 G2 [2] stood at 227 nM.

In the case of `C[C@@H]1CN(C(CO)Cc2cc(Cl)cc(C#N)c2)C[C@H]1COc1ccc(S(C)(=O)=O)cc1` (single isomer, unassigned) [Compound 122, 3-chloro-5-[(2S or 2R)-3-hydroxy-2-[(3S,4S)-3-[(4-methanesulfonylphenoxy)methyl]-4-methylpyrrolidin-1-yl]propyl]benzonitrile], the AC50 on APOL1 G2 [1] was 1110 nM. For the same compound, at APOL1 G2 [2], the EC50 was determined as 789 nM.

Regarding `CC(=O)N1CC(S(=O)(=O)c2ccc(OC[C@@H]3CN(CCc4cccc(Cl)c4)CCN3)cc2)C1` [Compound 109, 1-[3-(4-{[(2S)-4-[2-(3-chlorophenyl)ethyl]piperazin-2-yl]methoxy}benzenesulfonyl)azetidin-1-yl]ethan-1-one], the AC50 at APOL1 G2 [1] turned out to be 746 nM. On APOL1 G2 [2], the EC50 is 224 nM.

In the case of `C[C@@H]1C[C@H](COc2ccc(S(C)(=O)=O)cc2)CN1C1Cc2ccc(Cl)cc2C1` (single isomer, unassigned) [Compound 3, (2R,4S)-1-[(2R or 2S)-5-chloro-2,3-dihydro-1H-inden-2-yl]-4-[(4-methanesulfonylphenoxy)methyl]-2-methylpyrrolidine], the concentration at half-maximal activity (AC50) at APOL1 G2 [1] is 721 nM. Also, the EC50 on APOL1 G2 [2] was found to be 398 nM.

Take `C[C@@H]1CN(CCc2cc(Cl)cc(C#N)c2)C[C@H]1COc1ccc(C2(S(C)(=O)=O)COC2)cc1` [Compound 78, 3-chloro-5-{2-[(3S,4S)-3-{[4-(3-methanesulfonyloxetan-3-yl)phenoxy]methyl}-4-methylpyrrolidin-1-yl]ethyl}benzonitrile]: the AC50 on APOL1 G2 [1] came out at 114 nM. Moreover, on APOL1 G2 [2], the EC50 worked out at 25.8 nM.

For the compound `C[C@@H]1C[C@H](COc2ccc(S(C)(=O)=O)nc2)CN1CC(O)c1cccc(C#N)c1` (single isomer, unassigned) [Compound 93, 3-[(1R or 1S)-1-hydroxy-2-[(2R,4S)-4-{[(6-methanesulfonylpyridin-3-yl)oxy]methyl}-2-methylpyrrolidin-1-yl]ethyl]benzonitrile], on APOL1 G2 [1], the AC50 turned out to be 1250 nM. Besides, the EC50 at APOL1 G2 [2] came to 1670 nM.

On to `CS(=O)(=O)c1ccc(OCC2C[C@@H](CO)N(CCc3cccc(Cl)c3)C2)cc1` (single isomer, unassigned) [Compound 124, [(2S,4R or 4S)-1-[2-(3-chlorophenyl)ethyl]-4-[(4-methanesulfonylphenoxy)methyl]pyrrolidin-2-yl]methanol], for which, at APOL1 G2 [1], the AC50 is 4920 nM. The 50% effective concentration (EC50) on APOL1 G2 [2] came out at 5310 nM.

As to `CC(=O)N(C)CCS(=O)(=O)c1ccc(OC[C@@H]2CN(CCc3cccc(C#N)c3)C[C@H]2C)cc1` [Compound 76, N-[2-(4-{[(3S,4S)-1-[2-(3-cyanophenyl)ethyl]-4-methylpyrrolidin-3-yl]methoxy}benzenesulfonyl)ethyl]-N-methylacetamide], the half-maximal activity concentration (AC50) on APOL1 G2 [1] was found to be 250 nM. For the same compound, at APOL1 G2 [2], the EC50 was found to be 222 nM.

As for `C[C@@H]1C[C@H](COc2ccc(S(C)(=O)=O)nc2)CN1CCc1cc(Cl)cc(C#N)c1` [Compound 65, 3-chloro-5-{2-[(2R,4S)-4-{[(6-methanesulfonylpyridin-3-yl)oxy]methyl}-2-methylpyrrolidin-1-yl]ethyl}benzonitrile], the AC50 on APOL1 G2 [1] stood at 346 nM. Moreover, on APOL1 G2 [2], the concentration giving a half-maximal response (EC50) was determined as 49.8 nM.

For orientation: AC50 means the midpoint of the concentration-response curve, whichever way the signal moves. What is called EC50 is the concentration needed to bring the measured effect to its halfway point.
